# Measurements taken from patent US20220040123A1, “ANTI-HELICOBACTER FOOD COMPOSITION COMPRISING BETA-CARYOPHYLLENE” (priority 2018, published 2022).
# Columns and labels:
# [1] = tested on: CagA, VacA and SecA proteins; assay: Western blotting of H. pylori toxins CagA, VacA and SecA; format: cell-based, Helicobacter pylori; details: 125, 250 and 500 μg/ml, 3 days culture
# Description: To evaluate the effect of beta-caryophyllene treatment on the production of toxins secreted by Helicobacter pylori, Helicobacter pylori was treated with beta-caryophyllene, and then the amounts of CagA, VacA and SecA proteins were analyzed by Western blotting.
# For Western blotting, samples obtained by treating Helicobacter pylori with beta-caryophyllene at concentrations of 0, 125, 250 and 500 μg/ml and culturing the treated Helicobacter pylori for 3 days were lysed with RIPA lysis buffer (Millipore) on ice for 30 minutes and then centrifuged. The supernatants were collected, and then proteins therein were quantified using a spectrophotometer (Infinite M200, TECAN).
# Equal amounts of protein samples were loaded and electrophoresed on 10% SDS polyacrylamide gel, and the protein fractions were transferred to nitrocellulose membranes (PALL) and reacted with CagA (mouse monoclonal IgG antibody, Santa Cruz), VacA (rabbit polyclonal IgG antibody, Santa Cruz), SecA (rabbit polyclonal IgG antibody, produced by the applicant) and anti-Helicobacter pylori (rabbit polyclonal IgG antibody, produced by the applicant) antibodies at 4° C. for 16 hours. After completion of the primary antibody reaction, secondary blocking (1 hr/RT) was performed. As secondary antibodies, donkey anti-rabbit IgG-HRP, donkey anti-mouse IgG-HRP or donkey anti-goat IgG-HRP (Santa Cruz) was used depending on the primary antibody. The reaction products were treated by an enhanced chemiluminescence kit (Thermo), and then analyzed by Chemidoc (Fusion solo, Vilber Lourmat).
# [2] = tested on: sabA, hopZ, hpaA, alpA, alpB and babA genes; assay: RT-PCR of genes involved in the adhesion of H. pylori; format: cell-based, Helicobacter pylori; details: 31.25-500 μg/ml
# Description: In order to evaluate the effect of beta-caryophyllene against the adhesion function of H. pylori, changes in the expression of the genes sabA, hopZ, hpaA, alpA, alpB and babA involved in the adhesion of H. pylori were analyzed, and the results are shown in FIG. 8. Specifically, H. pylori was treated with beta-caryophyllene at concentrations of 31.25, 62.5, 125, 250 and 500 μg/ml, and the expression of the genes was analyzed by RT-PCR.
# H. pylori [3] = assay: Gastric rapid urease test (CLO test), therapeutic rate; format: in vivo, C57BL/6 mouse; details: oral gavage, 28 days, control G3 30%
# Description: (§1) In order to compare the Helicobacter pylori eradiation effect between beta-caryophyllene and the antibiotics that are used for treatment of Helicobacter pylori infection, an animal test was performed using the test groups and doses shown in Table 1 below.
# (§2) Each test substance was suspended in an excipient according to the dose and administered to each mouse once a day at the same time every day for a total of 28 days in a dose of 5 ml per kg mouse (C57BL/6 mouse) by oral gavage method.
# The rapid urease test is based on the principle according to which, when H. pylori is present in gastric mucosa, the bacteria produce ammonia by secreting urease while proliferating in a medium containing a test reagent and a pH indicator, and a change in the color of the pH indicator is examined.
# The gastric mucosal tissue extracted on the day of the autopsy was collected aseptically and tested using a Campylobacter-like organism (CLO) test reagent. The tissue was incubated in an incubator at 37° C. for 2 hours, the resulting color changed from yellow to red, the sample was judged as positive. The number of mice determined to be positive was calculated as a percentage, and the therapeutic rate for H. pylori eradication by sample treatment was obtained using the following equation, and the results are shown in Table 2 below.
# Therapeutic rate (%)=(number of samples−number of positive samples)/number of samples×100
# [4] = tested on: flhA, flaA, flaB and flgE genes; assay: RT-PCR of flagella-associated genes of H. pylori; format: cell-based, Helicobacter pylori; details: 31.25-500 μg/ml
# Description: In order to evaluate the effect of beta-caryophyllene treatment on the inhibition of flagella of H. pylori, changes in the expression of the flhA, flaA, flaB and flgE genes which constitute the flagella or are associated with the function of the flagella were examined, and the results are shown in FIG. 9. Specifically, H. pylori was treated with beta-caryophyllene at concentrations of 31.25, 62.5, 125, 250 and 500 μg/ml, and expression of the genes was analyzed by RT-PCR.
# [5] = tested on: cagA, vacA and secA genes; assay: RT-PCR of cagA, vacA and secA gene expression; format: cell-based, Helicobacter pylori; details: 31.25, 62.5, 125, 250 and 500 μg/ml
# Description: In addition, in order to examine changes in expression of cagA, vacA and secA genes, H. pylori was treated with beta-caryophyllene at concentrations of 31.25, 62.5, 125, 250 and 500 μg/ml, and then RT-PCR was performed.
# Helicobacter pylori = assay: RT-PCR of H. pylori-specific 16S rRNA in stomach tissue of infected animals; format: in vivo, Mongolian gerbils; details: groups treated with 100 mg/kg and 500 mg/kg
# Description: Mongolian gerbils were infected with a Helicobacter pylori strain (ATCC 49503) and then subjected to two weeks of acclimatization. To this end, the animals were fasted for 12 hours before and after inoculation with the Helicobacter pylori strain. 500 μl (1×10^9 CFU) of a bacterial suspension was prepared by suspending H. pylori in sterile physiological saline to a concentration of 2×10^9 CFU/ml and introduced directly into the stomach by using a feeding needle. For stable infection, the H. pylori strain was dispensed three times at 48 hour-intervals.
# Beta-caryophyllene was administered directly into the gastrointestinal at doses of 100 mg/kg and 500 mg/kg for the low and high dose groups, respectively, for 12 weeks after two weeks after infection with H. pylori. The same amount of corn oil as the beta-caryophyllene was administered to each of the non-infected group and the infected group.
# To confirm H. pylori infection, the stomach tissues of the four animal groups prepared in the H. pylori-infected animal preparation process shown in Experimental Example 2 were subjected to RT-PCR in order to examine whether H. pylori-specific 16S rRNA would be detected.
# H. pylori [6] = assay: CLO score after the CLO test; format: in vivo, C57BL/6 mouse; details: for CLO score: 28 days, score 0-3, control G3 2.10
# Description: as §1, §2
# The mean and standard deviation of each group were calculated, and the difference between the values of the groups was compared, and the results are shown in Table 3 below.
compound,measurement,setting,value
C=C1CC/C=C(\C)CC[C@@H]2[C@@H]1CC2(C)C [beta-caryophyllene],secretion of CagA (Western blot),[1],inhibited
same,secretion of SecA (Western blot),[1],inhibited
same,secretion of VacA (Western blot),[1],inhibited
same,expression of alpA gene,[2],decreased
same,expression of alpB gene,[2],decreased
same,expression of babA gene,[2],decreased
same,Therapeutic %,H. pylori [3]; G6: 100 mg/kg/day,60%
same,Therapeutic %,H. pylori [3]; G7: 200 mg/kg/day,56%
same,Therapeutic %,H. pylori [3]; G8: 500 mg/kg/day,80%
same,expression of flgE gene,[4],decreased
same,expression of flhA gene,[4],decreased
same,"transcription of other genes, including UDP-galactose 4-epimerase (control)",[5],did not affect
same,transcription of toxin protein gene cagA,[5],tended to be inhibited
same,transcription of toxin protein gene vacA,[5],tended to be inhibited
same,Helicobacter pylori eradication rate,"Helicobacter pylori; first value, week 6 (or 100 mg/kg; wording ambiguous)",90.4%
same,Helicobacter pylori eradication rate,"Helicobacter pylori; second value, week 12 (or 500 mg/kg; wording ambiguous)",95.8%
same,CLO score,H. pylori [6]; G6: 100 mg/kg/day,1.2
same,decrease of CLO score compared to G3,"H. pylori [6]; G6: 100 mg/kg/day, not statistically significant",42.9%
same,CLO score,H. pylori [6]; G7: 200 mg/kg/day,1.11
same,decrease of CLO score compared to G3,"H. pylori [6]; G7: 200 mg/kg/day, not statistically significant",47.1%
same,CLO score,H. pylori [6]; G8: 500 mg/kg/day,0.5
same,decrease of CLO score compared to G3,"H. pylori [6]; G8: 500 mg/kg/day, statistically significant",76.2%
